From patent publication US10051861B2, “N-arylamidine-substituted trifluoroethyl sulfide derivatives as acaricides and insecticides” (BAYER CROPSCIENCE AG, priority 2011, dated 2018)
Read-outs that look alike come from different tables or passages of the source.

Legend:
[1] = system: greenhouse red spider mite (Tetranychus urticae); assay: Tetranychus urticae spray test, OP-resistant (TETRUR), bean leaf disks; format: in vivo; conditions: Tetranychus urticae, foliar, 144 h, read-out: efficacy (spider mites killed)
Description: After 6 days, the effect in % is determined.

[2] = system: larvae of the mustard beetle (Phaedon cochleariae); assay: Phaedon cochleariae spray test (PHAECO); conditions: Phaedon cochleariae, 168 h, read-out: effect (beetle larvae killed)
[3] = system: cattle ticks (Boophilus microplus); assay: Boophilus microplus injection test (BOOPMI Inj); format: in vivo; conditions: Rhipicephalus microplus, 168 h, read-out: efficacy (laying of fertile eggs)
Description: Solvent: dimethyl sulfoxide
1 μl of the active compound solution is injected into the abdomen of 5 engorged adult female cattle ticks (Boophilus microplus). The animals are transferred into dishes and kept in a climate-controlled room.
The activity is assessed after 7 days by laying of fertile eggs. Eggs whose fertility is not visible from the outside are stored in a climate-controlled cabinet until the larvae hatch after about 42 days. An efficacy of 100% means that none of the ticks has laid any fertile eggs; 0% means that all eggs are fertile.

[4] = application rate 500 g/ha, after 6 days
[5] = application rate 20 μg/animal, injection, after 7 days

Row | Structure (SMILES) | pest or weed control at 500 g/ha [1, 4] [%] | pest or weed control at 500 g/ha [2] [%] | pest or weed control at 0.02 mg [3] [%] | pest or weed control at 500 g/ha [1] [%] | pest or weed control at 0.02 mg [3, 5] [%]
1 | FC(F)(F)CSc1cc(/N=C(\NC2CC2)c2ccc(Cl)nc2)c(Cl)cc1Cl [Ia-229] | 90 | 100 |  |  | 
2 | Cc1cc(F)c(/N=C(\N)C2(F)CC2)cc1[S+]([O-])CC(F)(F)F (centres unmarked) [Ib-19, 1-Fluoro-N′-{2-fluoro-4-methyl-5-[(2,2,2-trifluoroethyl)sulfinyl]phenyl}cyclopropanecarboximidamide] |  |  | 100 | 100 | 
3 | CN/C(=N/c1cc([S+]([O-])CC(F)(F)F)c(Br)cc1Br)C(F)(F)F (centres unmarked) [Ib-24] | 100 |  |  |  | 80
4 | Cc1cc(Cl)c(/N=C(\N)C2(Cl)CC2)cc1[S+]([O-])CC(F)(F)F (centres unmarked) [Ib-27] | 100 | 100 |  |  | 
5 | Cc1cc(F)c(/N=C2\CCCN2c2ccc(C(F)(F)F)cc2)cc1[S+]([O-])CC(F)(F)F (centres unmarked) [Ib-30] | 100 | 83 |  |  | 
6 | Cc1cc(Cl)c(/N=C(\N)C(F)(F)C(F)(F)F)cc1[S+]([O-])CC(F)(F)F (centres unmarked) [Ib-35] | 100 |  |  |  | 100
7 | Cc1cc(F)c(/N=C(\N)C(F)(F)C(F)(F)Cl)cc1[S+]([O-])CC(F)(F)F (centres unmarked) [Ib-38] | 100 |  |  |  | 100
8 | Cc1cc(F)c(/N=C(\NC2CC2)C2CC2)cc1[S+]([O-])CC(F)(F)F (centres unmarked) [Ib-39] | 100 | 100 |  |  | 
9 | Cc1cc(F)c(/N=C(\N)C(Cl)(Cl)Cl)cc1[S+]([O-])CC(F)(F)F (centres unmarked) [Ib-40] | 100 |  |  |  | 100
10 | Cc1cc(F)c(/N=C(\N)C(F)F)cc1[S+]([O-])CC(F)(F)F (centres unmarked) [Ib-43] | 100 | 100 |  |  | 
11 | Cc1cc(F)c(/N=C(/c2cccnc2)N(C)C)cc1[S+]([O-])CC(F)(F)F (centres unmarked) [Ib-47] | 100 |  |  |  | 100
12 | Cc1cc(F)c(/N=C(\N)c2ccc(Cl)nc2)cc1[S+]([O-])CC(F)(F)F (centres unmarked) [Ib-48] | 100 |  |  |  | 100
13 | CN/C(=N\c1cc([S+]([O-])CC(F)(F)F)c(C)cc1Cl)C(F)(F)F (centres unmarked) [Ib-56] | 100 | 100 |  |  | 
14 | N/C(=N/c1cc([S+]([O-])CC(F)(F)F)c(Cl)cc1Br)C(F)(F)F (centres unmarked) [Ib-57] | 100 | 100 |  |  | 
15 | CN/C(=N\c1cc([S+]([O-])CC(F)(F)F)c(C)cc1F)c1ccccn1 (centres unmarked) [Ib-58] | 100 |  |  |  | 100
16 | CN(C)/C(=N/c1cc([S+]([O-])CC(F)(F)F)c(Br)cc1F)C(F)(F)F (centres unmarked) [Ib-59] | 100 |  |  |  | 100
17 | CN/C(=N/c1cc([S+]([O-])CC(F)(F)F)c(Br)cc1F)C(F)(F)F (centres unmarked) [Ib-78] | 100 | 100 |  |  | 
18 | [O-][S+](CC(F)(F)F)c1cc(/N=C(\NCC(F)(F)F)C2CC2)c(Cl)cc1Cl (centres unmarked) [Ib-83] | 100 | 100 |  |  | 
19 | Cc1cc(Cl)c([S+]([O-])CC(F)(F)F)cc1/N=C(\N)C(F)(F)F (centres unmarked) [Ib-85] | 100 |  |  |  | 100
20 | CN/C(=N\c1cc([S+]([O-])CC(F)(F)F)c(Cl)cc1Cl)c1ccc(Cl)nc1 (centres unmarked) [Ib-89] | 100 |  |  |  | 80
21 | Cc1cc(F)c(/N=C(/NCc2ccc(C(F)(F)F)cc2)C(F)(F)F)cc1[S+]([O-])CC(F)(F)F (centres unmarked) [Ib-101] | 90 | 100 |  |  | 
22 | CN/C(=N/c1ccc(Cl)c([S+]([O-])CC(F)(F)F)c1)C(F)(F)F (centres unmarked) [Ib-110] | 100 | 100 |  |  | 
23 | Cc1ccc(/N=C(/N)C(F)(F)F)cc1[S+]([O-])CC(F)(F)F (centres unmarked) [Ib-111] | 90 | 100 |  |  | 
24 | C#CCN/C(=N\c1cc([S+]([O-])CC(F)(F)F)c(C)cc1F)C1CC1 (centres unmarked) [Ib-137] | 100 | 83 |  |  | 
25 | Cc1cc(F)c(/N=C(/c2ccc(Cl)cc2)N2CCC(F)(F)CC2)cc1[S+]([O-])CC(F)(F)F (centres unmarked) [Ib-143] | 90 | 83 |  |  | 
